Experimental data: patent US6881825B1, “Identication of peptides that facilitate uptake and cytoplasmic and/or nuclear transport of proteins, DNA and virues” (University of Pittsburgh of The Commonwealth System of …, priority 1999, dated 2005)

What was measured:
[1] = system: arthritic rabbit knee joints; test: IL-1-induced arthritis, intra-articular peptide, TUNEL/histology and lavage white blood cells; format: in vivo; details: arthritic rabbit knees; FIG. 18
Description: In addition, the death peptide was administered to rabbits with IL-1-induced arthritis (see Ghivizzani et al. J. Immunol. 159:3604 (1997)). Three arthritic rabbits received the death peptide, three received peptide 5 alone and 3 received the apoptotic protein alone. The rabbits were sacrificed 24 or 72 hours post-injection of the peptides and the rabbit knee capsules were removed for histology analysis and TUNEL staining.

MCA205 fibrosarcomas = test: TUNEL and H&E staining of treated MCA205 fibrosarcomas; format: in vivo, C57BL/6 mice; details: 11 days daily treatment, sacrificed three hours after last injection; FIG. 16C
Description: To determine whether the death peptide could induce apoptosis in tumor cells and inhibit tumor growth in vivo, C57BL/6 mice bearing day 7 tumors in each […] (seeded with 1×10^5 MCA205 cells) were injected daily for 10 days with a 50 μl volume of 1 mM death peptide (SEQ ID NO:24; DP1) or the apoptotic peptide alone (SEQ ID NO:23; KLA) or a saline mock into both tumors. Five mice were used in each group. Tumor volume was estimated by multiplying maximum length×width^2. Separately, C57BL/6 with single, day 12 tumors were injected with 1 mM death peptide (SEQ ID NO:24; DP1), apoptotic peptide alone (SEQ ID NO:23; KLA) or saline for eleven days. Ten mice comprised each group. On the final day, the mice were injected with the appropriate saline or peptide solution and sacrificed 3 hours post-injection. Tumors were paraffin-embedded, sectioned, and stained for TUNEL and counterstained with methyl green or stained with hematoxylin and eosin to reveal histologic architecture.
To test whether apoptosis was the mechanism of tumor killing in vivo and to study the effects of death peptide administration on tumor architecture, fibrosarcomas treated daily for 11 days with death peptide (SEQ ID NO:24; DP1), apoptotic peptide alone (SEQ ID NO:23, KLA) or tris buffered saline (TBS) were injected with 50 μl of 1 mM DP1, KLA or TBS on the eleventh day and sacrificed three hours later. […]

HIG82 cells = test: Cell viability by MTT assay (OD 570 nm); format: cell-based, rabbit; details: HIG-82 cells; 100-3.1 μM peptide, three hours; FIG. 14, 15
Description: 2×10^5 cells (HIG82, MCA205 or Jurkatt) were seeded into 24 well plates. Forty-eight hours later, 100 μM, 50 μM, 25 μM, 6.25 μM and 3.1 μM of the either the death peptide (SEQ ID NO:24), peptide 5 alone (SEQ ID NO:5) or the apoptotic peptide alone (SEQ ID NO:23) was added to the cells. To check for cell viability, three hours later, the media was aspirated and 1 ml of scrum-free media containing 0.25 mg of MTT was added to each well and incubated for 4 hours at 37° C. MTT-containing media was then removed and 1 ml of absolute isopropanol containing 0.4N HCl was added. Photographs were taken of the plates, then the cells were harvested and any debris was centrifuged. OD as taken at λ=570 nm. Each sample point was performed in triplicate.

## KLAKLAKKLAKLAK (random peptide library)
[1]
  apoptosis of hyperplastic synovium: did not
MCA205 fibrosarcomas
  apoptosis in tumors (TUNEL staining): No TUNEL staining
HIG82 cells
  cell viability (MTT, OD570): did not impair viability
